System: murine leukaemia, L1210
Assay: In vitro cytotoxicity, Microculture Tetrazolium Assay
Assay type: cell-based
Settings: Mus musculus, 48 h; L1210 cells, incubated for 2 days; read-out: IC50 (concentration of cytotoxic agent which inhibits proliferation of the treated cells by 50%)
Experimental: Three cell lines were used:
1 murine leukaemia, L1210,
1 human non-small-cell lung carcinoma, A549,
1 human colon carcinoma, HT29.
The cells are cultured in RPMI 1640 complete culture medium containing 10% foetal calf serum, 2 mM glutamine, 50 units/ml of penicillin, 50 μg/ml of streptomycin and 10 mM Hepes, pH=7.4. The cells are distributed on microplates and are exposed to the cytotoxic compounds. The cells are then incubated for 2 days (L1210) or 4 days (A549, HT29). The number of viable cells is then quantified by a colorimetric assay, the Microculture Tetrazolium Assay (Cancer Res. 1987, 47, 939-942).

COc1cc(C2C3=C(COC3=S)N(Cc3ccccc3)c3cc4c(cc32)OCO4)cc(OC)c1OC (stereo not shown) [Example 5, 4-Benzyl-6,7-methylenedioxy-9-(3,4,5-trimethoxyphenyl)-4,9-dihydrofuro[3,4-b]quinoline-1(3H)-thione]
IC50: 190 nM
